# Results reported in patent US20230265151A1, “GIP/GLP1 CO-AGONIST COMPOUNDS” (priority 2020, published 2023).
# Where two headings read alike, the source gives them in different places.
# Key:
# Assay type in all cases: cell-based
# hGLP-1R = hGLP-1R (Homo sapiens, UniProt P43220); test: Functional cAMP formation (HTRF) in HEK-293 clonal cells expressing hGLP-1R, 0.1% bovine casein, without or with 1.0% human serum albumin; parameters: expressed in transfected cells; details: for EC50: geometric mean
# Chain of hGLP-1R (P43220 24-463): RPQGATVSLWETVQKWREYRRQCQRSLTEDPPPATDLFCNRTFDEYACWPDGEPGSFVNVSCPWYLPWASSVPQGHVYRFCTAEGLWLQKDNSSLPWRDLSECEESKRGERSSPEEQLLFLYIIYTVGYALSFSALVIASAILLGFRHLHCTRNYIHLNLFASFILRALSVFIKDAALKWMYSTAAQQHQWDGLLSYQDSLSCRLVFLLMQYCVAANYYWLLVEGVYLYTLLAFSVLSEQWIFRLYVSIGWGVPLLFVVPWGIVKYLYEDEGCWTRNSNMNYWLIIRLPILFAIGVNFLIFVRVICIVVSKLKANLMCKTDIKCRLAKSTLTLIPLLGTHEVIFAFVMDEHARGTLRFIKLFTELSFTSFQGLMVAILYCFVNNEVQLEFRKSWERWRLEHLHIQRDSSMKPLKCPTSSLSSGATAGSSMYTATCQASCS
# How it was run: (§1)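 Cells were stimulated with peptide for 30 min at 37° C, then intracellular cAMP was measured by competitive HTRF (665/620 nm ratio) and converted to nM using a cAMP standard curve. Relative EC50 and Emax came from four-parameter logistic fits of percent maximal response against peptide concentration.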
# hGCGR = molecular target: T1, hGCGR (Homo sapiens, UniProt P47871); test: Functional cAMP formation (HTRF) in HEK-293 clonal cells expressing hGCGR, 0.1% bovine casein, without or with 1.0% human serum albumin; details: geometric mean
# T1 construct: expressed in transfected cells
# T1 sequence (P47871 26-477): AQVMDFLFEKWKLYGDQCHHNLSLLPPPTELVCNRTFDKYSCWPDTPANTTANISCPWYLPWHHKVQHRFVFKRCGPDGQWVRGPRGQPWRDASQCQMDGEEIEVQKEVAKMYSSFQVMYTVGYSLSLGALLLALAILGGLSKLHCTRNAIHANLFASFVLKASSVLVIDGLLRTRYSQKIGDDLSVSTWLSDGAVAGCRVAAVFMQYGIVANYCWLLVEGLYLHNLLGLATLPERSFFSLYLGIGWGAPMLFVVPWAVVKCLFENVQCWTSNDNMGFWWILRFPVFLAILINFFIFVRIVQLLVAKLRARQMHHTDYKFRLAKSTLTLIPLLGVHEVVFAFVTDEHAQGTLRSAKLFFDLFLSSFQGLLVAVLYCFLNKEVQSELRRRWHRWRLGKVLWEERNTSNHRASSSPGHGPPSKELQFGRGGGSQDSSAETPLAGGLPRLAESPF
# How it was run: as §1
# hGIPR = molecular target: T2, hGIPR (Homo sapiens, UniProt P48546); test: Functional cAMP formation (HTRF) in HEK-293 clonal cells expressing hGIPR, 0.1% bovine casein, without or with 1.0% human serum albumin; details: for EC50: geometric mean
# T2 construct: expressed in transfected cells
# T2 sequence (P48546 22-466): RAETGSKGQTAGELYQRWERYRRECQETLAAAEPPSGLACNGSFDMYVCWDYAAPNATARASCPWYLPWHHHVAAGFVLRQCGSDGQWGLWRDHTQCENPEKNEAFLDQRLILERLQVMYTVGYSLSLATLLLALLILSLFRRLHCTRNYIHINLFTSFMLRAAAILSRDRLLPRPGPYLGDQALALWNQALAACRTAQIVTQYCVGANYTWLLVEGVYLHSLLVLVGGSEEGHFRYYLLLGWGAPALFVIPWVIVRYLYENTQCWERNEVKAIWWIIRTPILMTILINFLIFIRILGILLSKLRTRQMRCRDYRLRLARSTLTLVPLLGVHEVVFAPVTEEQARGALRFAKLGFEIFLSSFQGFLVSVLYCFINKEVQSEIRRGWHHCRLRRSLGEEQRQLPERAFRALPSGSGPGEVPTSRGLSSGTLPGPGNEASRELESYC
# How it was run: as §1
SMILES,"EC50 (hGLP-1R; hGLP-1R EC50, nM (SEM, n), 0.1% bovine casein and 1.0% human serum albumin, 37° C.)","EC50 (hGCGR; hGCGR EC50, nM (SEM, n), 0.1% bovine casein and 1.0% human serum albumin, 37° C.)","EC50 (hGCGR; hGCGR EC50, nM (SEM, n), cAMP, incubated at 37° C., 0.1% bovine casein (no human serum albumin))","Emax (hGIPR; HEK293, read-out: hGIPR Emax, % ± SEM, 0.1% bovine casein and 1.0% human serum albumin, 37° C., percent of maximal response to GIP(1-42)NH2)","Emax (hGIPR; HEK293, read-out: hGIPR Emax, % ± SEM, percent of maximal response to GIP(1-42)NH2, 37° C., 0.1% bovine casein, arithmetic mean)","EC50 (hGIPR; hGIPR EC50, nM (SEM, n), 0.1% bovine casein and 1.0% human serum albumin, 37° C.)","EC50 (hGIPR; hGIPR EC50, nM (SEM, n), cAMP, incubated at 37° C., 0.1% bovine casein (no human serum albumin))","EC50 (hGLP-1R; 0.1% bovine casein and 1.0% human serum albumin, 37° C., read-out: hGLP-1R EC50, nM (SEM, n))","Emax (hGLP-1R; HEK293, 0.1% bovine casein and 1.0% human serum albumin, 37° C., percent of maximal response to GLP-1(7-36)NH2, read-out: hGLP-1R Emax, % ± SEM)","EC50 (hGLP-1R; cAMP, incubated at 37° C., 0.1% bovine casein (no human serum albumin), read-out: hGLP-1R EC50, nM (SEM, n))","EC50 (hGCGR; 0.1% bovine casein and 1.0% human serum albumin, 37° C., read-out: hGCGR EC50, nM (SEM, n))","EC50 (hGCGR; cAMP, incubated at 37° C., 0.1% bovine casein (no human serum albumin), read-out: hGCGR EC50, nM (SEM, n))","EC50 (hGIPR; 0.1% bovine casein and 1.0% human serum albumin, 37° C., read-out: hGIPR EC50, nM (SEM, n))","Emax (hGIPR; HEK293, percent of maximal response to GIP(1-42)NH2, 37° C., 0.1% bovine casein, arithmetic mean, read-out: hGIPR Emax, % ± SEM)"
CC[C@H](C)[C@H](NC(=O)[C@H](CCCN)NC(=O)[C@H](CC(=O)O)NC(=O)[C@H](CC(C)C)NC(=O)[C@](C)(CC(C)C)NC(=O)[C@@H](NC(=O)[C@H](CO)NC(=O)[C@H](Cc1ccncc1)NC(=O)[C@H](CC(=O)O)NC(=O)[C@H](CO)NC(=O)[C@@H](NC(=O)[C@](C)(Cc1ccccc1F)NC(=O)[C@@H](NC(=O)CNC(=O)[C@H](CCC(=O)O)NC(=O)C(C)(C)NC(=O)[C@@H](N)Cc1ccc(O)cc1)[C@@H](C)O)[C@@H](C)O)[C@@H](C)CC)C(=O)N[C@@H](C)C(=O)N[C@@H](CCC(N)=O)C(=O)NC(C)(C)C(=O)N[C@@H](CCCCNC(=O)COCCOCCNC(=O)COCCOCCNC(=O)CC[C@H](NC(=O)CCCCCCCCCCCCC(=O)O)C(=O)O)C(=O)N[C@@H](Cc1ccccc1)C(=O)N[C@H](C(=O)N[C@@H](CCCCNC(=O)COCCOCCNC(=O)COCCOCCNC(=O)CC[C@H](NC(=O)CCCCCCCCCCCCC(=O)O)C(=O)O)C(=O)N[C@@](C)(Cc1ccc(O)cc1)C(=O)N[C@@H](CC(C)C)C(=O)N[C@H](C(=O)N[C@@H](CCC(=O)O)C(=O)NCC(=O)NCC(=O)N1CCC[C@H]1C(=O)N[C@@H](CO)C(=O)N[C@@H](CO)C(=O)NCC(=O)N[C@@H](C)C(=O)N1CCC[C@H]1C(=O)N1CCC[C@H]1C(=O)N1CCC[C@H]1C(=O)N[C@@H](CO)C(N)=O)[C@@H](C)CC)[C@@H](C)CC [Example 69],18.9 nM,> 9950 nM,> 9950 nM,86.8%,99 ± 2.43%,2.32 nM,0.0265 nM,–,–,–,–,–,–,–
CC[C@H](C)[C@H](NC(=O)[C@H](CCCN)NC(=O)[C@H](CC(=O)O)NC(=O)[C@H](CC(C)C)NC(=O)[C@](C)(CC(C)C)NC(=O)[C@@H](NC(=O)[C@H](CO)NC(=O)[C@H](Cc1ccncc1)NC(=O)[C@H](CC(=O)O)NC(=O)[C@H](CO)NC(=O)[C@@H](NC(=O)[C@](C)(Cc1ccccc1F)NC(=O)[C@@H](NC(=O)CNC(=O)[C@H](CCC(=O)O)NC(=O)C(C)(C)NC(=O)[C@@H](N)Cc1ccc(O)cc1)[C@@H](C)O)[C@@H](C)O)[C@@H](C)CC)C(=O)N[C@@H](C)C(=O)N[C@@H](CCC(N)=O)C(=O)NC(C)(C)C(=O)N[C@@H](CCC(=O)O)C(=O)N[C@@H](Cc1ccccc1)C(=O)N[C@H](C(=O)N[C@@H](CCCCNC(=O)COCCOCCNC(=O)COCCOCCNC(=O)CC[C@H](NC(=O)CCCCCCCCCCCCC(=O)O)C(=O)O)C(=O)N[C@@](C)(Cc1ccc(O)cc1)C(=O)N[C@@H](CC(C)C)C(=O)N[C@H](C(=O)N[C@@H](CCC(=O)O)C(=O)NCC(=O)NCC(=O)N[C@@H](CCCCNC(=O)COCCOCCNC(=O)COCCOCCNC(=O)CC[C@H](NC(=O)CCCCCCCCCCCCC(=O)O)C(=O)O)C(=O)N[C@@H](CO)C(=O)N[C@@H](CO)C(=O)NCC(=O)N[C@@H](C)C(=O)N1CCC[C@H]1C(=O)N1CCC[C@H]1C(=O)N1CCC[C@H]1C(=O)N[C@@H](CO)C(N)=O)[C@@H](C)CC)[C@@H](C)CC [Example 71],–,–,–,–,–,–,–,43.7 nM,100%,0.246 nM,> 9950 nM,> 9950 nM,3.07 nM,93.8 ± 3.59%
